The values that follow come from patent US20240327393A1 (SIRONAX LTD., priority 2021, published 2024).

One test concerns HT-1080 (ATCC, CCL-121) cells. Nature of the test: HT-1080 cell viability assay with ferroptosis inducer RSL3 (Cell Titer-Glo). It counts as cell-based. Particulars: Homo sapiens; HT-1080 cells treated with RSL3; 3-fold, 10-point dilution, 1.1 μM highest concentration; Table 2; read-out: EC50 (nM), ferroptosis inhibitory activity. The procedure, abridged: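 HT-1080 cells (6000 per well) were cultured overnight at 37 °C, then co-treated with RSL3 and compound in a 3-fold, 10-point series topping at 1.1 μM. Viability was read by CellTiter-Glo luminescence and normalized to untreated controls. EC50 came from a sigmoidal non-linear regression fit.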
Turning to `CN1Cc2cc(Nc3ccc(N4CCCCC4)cc3)ccc2C1=O` [Compound 217, 2-methyl-5-((4-(piperidin-1-yl)phenyl)amino)isoindolin-1-one], the EC50 was in the range of 0.1 to 100 nM.

For the compound `c1ccc(Nc2ccc3c(c2)CCNC3)cc1` [Compound 104, N-phenyl-1,2,3,4-tetrahydroisoquinolin-6-amine], the EC50 was in the range of 0.1 to 100 nM.

With `CN1CCC(N2Cc3cc(Nc4ccc(N5CCC(C)(C)CC5)cc4)ccc3C2=O)CC1` [Compound 247, 5-((4-(4,4-dimethylpiperidin-1-yl)phenyl)amino)-2-(1-methylpiperidin-4-yl)isoindolin-1-one], the EC50 was in the range of 0.1 to 100 nM.

In the case of `CNCCCn1cc2cc(Nc3ccc(N4CCC(C(F)(F)F)CC4)cc3)ccc2n1` [Compound 415, 2-(3-(methylamino)propyl)-N-(4-(4-(trifluoromethyl)piperidin-1-yl)phenyl)-2H-indazol-5-amine], the EC50 lay in the range of 0.1 to 100 nM.

With `CC(=O)N1CCc2cc(Nc3ccccc3)ccc2C1` [Compound 106, 1-(6-(phenylamino)-3,4-dihydroisoquinolin-2(1H)-yl)ethan-1-one], the EC50 lay within 0.1 to 100 nM.

With `Cn1c(=O)n(C)c2cc(Nc3ccc(C4CCCCC4)cc3)ccc21` [Compound 394, 5-((4-cyclohexylphenyl)amino)-1,3-dimethyl-1,3-dihydro-2H-benzo[d]imidazol-2-one], the EC50 was in the range of 0.1 to 100 nM.

With `CNCCCN1C(=O)COc2cc(Nc3ccc(N4CC(C)OC(C)C4)cc3)ccc21` (stereo not drawn) [Compound 45, 7-((4-(2,6-dimethylmorpholino)phenyl)amino)-4-(3-(methylamino)propyl)-2H-benzo[b][1,4]oxazin-3(4H)-one], the EC50 was in the range of 0.1 to 100 nM.

In the case of `Cn1nnc2cc(Nc3ccc(N4CCC(C(F)(F)F)CC4)cc3)ccc21` [Compound 300, 1-methyl-N-(4-(4-(trifluoromethyl)piperidin-1-yl)phenyl)-1H-benzo[d][1,2,3]triazol-5-amine], the EC50 was in the range of 0.1 to 100 nM.

Regarding `COc1ccc(Nc2ccc3c(c2)n(C)c(=O)n3C)cn1` [Compound 320, 5-((6-methoxypyridin-3-yl)amino)-1,3-dimethyl-1,3-dihydro-2H-benzo[d] imidazol-2-one], the EC50 was 0.1 to 100 nM.

For `Cc1nc(N2CCC(C(F)(F)F)CC2)ccc1Nc1ccc2c(c1)n(C)c(=O)n2C` [Compound 373, 1,3-dimethyl-5-((2-methyl-6-(4-(trifluoromethyl)piperidin-1-yl)pyridin-3-yl)amino)-1,3-dihydro-2H-benzo[d]imidazol-2-one], the EC50 was 0.1 to 100 nM.

Take `NC(=O)CCN1C(=O)COc2cc(Nc3ccc(N4CCC(C(F)(F)F)CC4)cc3)ccc21` [Compound 15, 3-(3-oxo-7-((4-(4-(trifluoromethyl)piperidin-1-yl)phenyl)amino)-2,3-dihydro-4H-benzo[b][1,4]oxazin-4-yl)propanamide]: the EC50 lay within 0.1 to 100 nM.

Turning to `CNCCN1C(=O)COc2cc(Nc3ccc(N4CCC(C(F)(F)F)CC4)cc3)ccc21` [Compound 43, 4-(2-(methylamino)ethyl)-7-((4-(4-(trifluoromethyl)piperidin-1-yl)phenyl)amino)-2H-benzo[b][1,4]oxazin-3(4H)-one], the EC50 lay in the range of 0.1 to 100 nM.

For `Cc1cc(=O)oc2cc(Nc3ccc(N4CCC(C(F)(F)F)CC4)cc3)ccc12` [Compound 119, 4-methyl-7-((4-(4-(trifluoromethyl)piperidin-1-yl)phenyl)amino)-2H-chromen-2-one], the EC50 was in the range of 0.1 to 100 nM.

With `CN1C(=O)COc2cc(Nc3ccc4c(c3)CCCC4(C)C)ccc21` [Compound 37, 7-((5,5-dimethyl-5,6,7,8-tetrahydronaphthalen-2-yl)amino)-4-methyl-2H-benzo[b][1,4]oxazin-3(4H)-one], the EC50 lay in the range of 0.1 to 100 nM.

Regarding `O=c1[nH]c2cc(Nc3ccc(N4CCC(C(F)(F)F)CC4)cc3)ccc2o1` [Compound 433, 5-((4-(4-(trifluoromethyl)piperidin-1-yl)phenyl)amino) benzo[d]oxazol-2(3H)-one], the EC50 is 0.1 to 100 nM.

Regarding `Cc1cc(Nc2ccc3c(c2)OCC(=O)N3)ccc1N1CCC(C(F)(F)F)CC1` [Compound 101, 7-((3-methyl-4-(4-(trifluoromethyl)piperidin-1-yl)phenyl)amino)-2H-benzo[b][1,4]oxazin-3(4H)-one], the EC50 was 100 to 1000 nM.

`CN(C)CCn1c(=O)n(C)c2cc(Nc3ccc(N4CCC(C(F)(F)F)CC4)cc3)ccc21` [Compound 355, 1-(2-(dimethylamino)ethyl)-3-methyl-5-((4-(4-(trifluoromethyl)piperidin-1-yl)phenyl)amino)-1,3-dihydro-2H-benzo[d]imidazol-2-one]: the EC50 lay in the range of 0.1 to 100 nM.

`CN1Cc2cc(Nc3ccc(N4CCC(C(F)(F)F)CC4)cc3)ccc2C1=N` [Compound 291, 1-imino-2-methyl-N-(4-(4-(trifluoromethyl)piperidin-1-yl)phenyl) isoindolin-5-amine]: the EC50 fell in the range of 0.1 to 100 nM.

Regarding `CNCCCN1C(=O)COc2cc(Nc3ccc(N4CC(C)OC(C)C4)cc3C)ccc21` (stereo not drawn) [Compound 50, 7-((4-(2,6-dimethylmorpholino)-2-methylphenyl)amino)-4-(3-(methylamino)propyl)-2H-benzo[b][1,4]oxazin-3(4H)-one], the EC50 is 0.1 to 100 nM.

Consider `CN1Cc2cc(Nc3ccc(N4CCC(C(F)(F)F)C4)cc3)ccc2C1=O` (stereo not drawn) [Compound 222, 2-methyl-5-((4-(3-(trifluoromethyl)pyrrolidin-1-yl)phenyl)amino) isoindolin-1-one], for which the EC50 was in the range of 0.1 to 100 nM.

As for `CN1Cc2cc(Nc3ccc(N4CCCCC4)c(N(C)C)c3)ccc2C1=O` [Compound 303, 5-((3-(dimethylamino)-4-(piperidin-1-yl)phenyl)amino)-2-methylisoindolin-1-one], the EC50 fell in the range of 0.1 to 100 nM.

Take `CNCCN1C(=O)COc2cc(Nc3ccc(C(C)(C)C)cc3)ccc21` [Compound 48, 7-((4-(tert-butyl)phenyl)amino)-4-(2-(methylamino)ethyl)-2H-benzo[b][1,4]oxazin-3(4H)-one]: the EC50 was in the range of 0.1 to 100 nM.

Turning to `O=C1c2ccc(Nc3ccc(N4CCCCC4)cc3)cc2CN1CC1CC1` [Compound 185, 2-(cyclopropylmethyl)-5-((4-(piperidin-1-yl)phenyl)amino)isoindolin-1-one], the EC50 fell in the range of 0.1 to 100 nM.

Take `CC(C)C1CCN(c2ncc(Nc3ccc4c(c3)OCC(=O)N4C)cn2)CC1` [Compound 36, 7-((2-(4-isopropylpiperidin-1-yl)pyrimidin-5-yl)amino)-4-methyl-2H-benzo[b][1,4]oxazin-3(4H)-one]: the EC50 lay within 0.1 to 100 nM.

As for `COc1nc(N2CCC(C(F)(F)F)CC2)ccc1Nc1ccc2c(c1)n(C)c(=O)n2C` [Compound 377, 5-((2-methoxy-6-(4-(trifluoromethyl)piperidin-1-yl)pyridin-3-yl)amino)-1,3-dimethyl-1,3-dihydro-2H-benzo[d]imidazol-2-one], the EC50 was in the range of 0.1 to 100 nM.

Consider `Cn1cnc2cc(Nc3ccc(N4CCC(C(F)(F)F)CC4)cc3)ccc21` [Compound 336, 1-methyl-N-(4-(4-(trifluoromethyl)piperidin-1-yl)phenyl)-1H-benzo[d]imidazol-5-amine], for which the EC50 fell in the range of 0.1 to 100 nM.

The test is the same for the next values; noted with them: Homo sapiens; HT-1080 cells treated with RSL3; 3-fold, 10-point dilution, 1.1 μM highest concentration; Table 3; read-out: EC50 (nM), ferroptosis inhibitory activity.
Turning to `COCCOC1CCN(c2ccc(Nc3ccc4c(c3)OCC(=O)N4)c(C)c2)CC1` [Compound 505], the EC50 is 0.1 to 100 nM.

As for `CNCc1cnc2cc(Nc3ccc(N4CCC(C(F)(F)F)CC4)cc3C)ccn12` [Compound 609, N-(2-methyl-4-(4-(trifluoromethyl)piperidin-1-yl)phenyl)-3-((methylamino)methyl)imidazo[1,2-a]pyridin-7-amine], the EC50 fell in the range of 0.1 to 100 nM.

For the compound `O=C1COc2cc(Nc3cnc(N4CCC(C(F)(F)F)CC4)nc3)ccc2N1` [Compound 475, 7-((2-(4-(trifluoromethyl)piperidin-1-yl)pyrimidin-5-yl)amino)-2H-benzo[b][1,4]oxazin-3(4H)-one], the EC50 is 0.1 to 100 nM.

In the case of `COC1(C(F)(F)F)CCN(c2ccc(Nc3ccc4c(c3)OCC(=O)N4)c(C)c2)C1` (stereo not drawn) [Compound 616, 7-((4-(3-methoxy-3-(trifluoromethyl)pyrrolidin-1-yl)-2-methylphenyl)amino)-2H-benzo[b][1,4]oxazin-3(4H)-one], the EC50 was in the range of 0.1 to 100 nM.

For the compound `Cc1cc(N2CCC(C(F)F)CC2)ccc1Nc1ccc2c(c1)OCC(=O)N2` [Compound 654, 7-[4-[4-(difluoromethyl)-1-piperidyl]-2-methyl-anilino]-4H-1,4-benzoxazin-3-one], the EC50 was 0.1 to 100 nM.

Take `COc1cc(Nc2ccc(N3CCC(C(F)(F)F)CC3)cc2C)cc2c1NC(=O)CO2` [Compound 564, 5-methoxy-7-((2-methyl-4-(4-(trifluoromethyl)piperidin-1-yl)phenyl)amino)-2H-benzo[b][1,4]oxazin-3(4H)-one]: the EC50 was 0.1 to 100 nM.

On to `Cc1cc(N2CCC(O)(C(F)(F)F)CC2)ccc1Nc1ccc2c(c1)OCCC(=O)N2` [Compound 555, 8-((4-(4-hydroxy-4-(trifluoromethyl)piperidin-1-yl)-2-methylphenyl)amino)-2,3-dihydrobenzo[b][1,4]oxazepin-4(5H)-one], for which the EC50 fell in the range of 0.1 to 100 nM.

Consider `Cc1cc(N2CCCCC2)ccc1Nc1ccc2c(c1)OCC(=O)N2` [Compound 470, 7-((2-methyl-4-(piperidin-1-yl)phenyl)amino)-2H-benzo[b][1,4]oxazin-3(4H)-one], for which the EC50 is 0.1 to 100 nM.

Regarding `O=C1COc2cc(Nc3ccc(N4CCC(C(F)(F)F)CC4)nc3)ccc2N1` [Compound 474, 7-((6-(4-(trifluoromethyl)piperidin-1-yl)pyridin-3-yl)amino)-2H-benzo[b][1,4]oxazin-3(4H)-one], the EC50 was in the range of 0.1 to 100 nM.

Turning to `Cc1cc(N2CCC(C(F)(F)F)CC2)ccc1Nc1ccc2[nH]c(=O)oc2c1` [Compound 496, 6-((2-methyl-4-(4-(trifluoromethyl)piperidin-1-yl)phenyl)amino) benzo[d]oxazol-2(3H)-one], the EC50 lay within 0.1 to 100 nM.
